What was measured:
[1] = biological target: T1, Androgen receptor (Homo sapiens, UniProt P10275); test: Agonist activity at human Androgen receptor expressed in African green monkey CV-1 cells measured by ARE-luciferase assay; format: cell-based
T1 sequence (P10275 whole entry): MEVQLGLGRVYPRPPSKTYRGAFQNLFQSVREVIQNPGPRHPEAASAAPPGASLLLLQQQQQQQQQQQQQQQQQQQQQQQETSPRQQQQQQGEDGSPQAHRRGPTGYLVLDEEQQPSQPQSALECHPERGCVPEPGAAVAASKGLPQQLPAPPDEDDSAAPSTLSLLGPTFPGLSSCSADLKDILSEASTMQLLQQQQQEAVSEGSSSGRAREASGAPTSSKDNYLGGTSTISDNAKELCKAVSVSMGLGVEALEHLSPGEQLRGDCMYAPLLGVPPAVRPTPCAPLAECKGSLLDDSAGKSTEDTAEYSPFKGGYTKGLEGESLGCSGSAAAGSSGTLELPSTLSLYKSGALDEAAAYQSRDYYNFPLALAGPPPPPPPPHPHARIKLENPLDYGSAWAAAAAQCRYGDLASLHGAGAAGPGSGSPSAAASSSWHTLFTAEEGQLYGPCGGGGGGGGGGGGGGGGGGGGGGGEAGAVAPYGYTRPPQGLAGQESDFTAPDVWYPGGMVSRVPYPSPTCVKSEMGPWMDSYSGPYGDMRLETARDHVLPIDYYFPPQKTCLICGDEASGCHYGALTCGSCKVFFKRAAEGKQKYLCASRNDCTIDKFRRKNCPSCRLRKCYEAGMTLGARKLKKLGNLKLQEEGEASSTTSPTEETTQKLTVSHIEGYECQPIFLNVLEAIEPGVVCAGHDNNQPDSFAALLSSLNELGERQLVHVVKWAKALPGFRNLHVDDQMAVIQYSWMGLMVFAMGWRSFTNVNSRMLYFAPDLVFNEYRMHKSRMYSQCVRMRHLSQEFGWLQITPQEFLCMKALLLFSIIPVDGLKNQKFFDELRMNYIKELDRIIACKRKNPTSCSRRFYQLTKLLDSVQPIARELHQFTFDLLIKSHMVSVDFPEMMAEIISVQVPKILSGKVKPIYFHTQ

[2] = biological target: T1, Androgen receptor; test: Activation of human Androgen receptor N/C (N-terminal/C-terminal) interaction
[3] = biological target: T1, Androgen receptor; test: Agonist activity at Androgen receptor in human 22Rv1 cells cotransfected with pARE-LUC measured by luciferase assay; format: cell-based
[4] = biological target: T2, Androgen receptor (Homo sapiens) (UniProt P10275); test: Displacement of [3H]DHT from Androgen receptor (unknown origin) relative to control; conditions: filed as antagonist
T2 sequence (whole entry): T1 sequence (P10275 whole entry)

[5] = biological target: T1, Androgen receptor; test: Antagonist activity at Androgen receptor (unknown origin) in African green monkey COS-1 cells; format: cell-based
[6] = tested on: LNCaP; test: Antitumor activity against human LNCaP cells xenografted in mouse assessed as decrease in PSA level at 25 mg/kg, sc; format: functional; parameters: scale not given: the % may be the effect or the level left
[7] = tested on: LNCaP; test: Antitumor activity against human LNCaP cells expressing Androgen receptor F877L mutant xenografted in mouse assessed as tumor growth inhibition at 30 mg/kg, po administered daily; format: functional; conditions: read-out: TGI
[8] = tested on: VCaP; test: Antiproliferative activity against human VCaP cells; format: functional, cell-based
[9] = Oral bioavailability in mouse; format: ADME, organism-based; conditions: in vivo
[10] = Oral bioavailability in dog; format: ADME, organism-based, Canis lupus familiaris; conditions: in vivo
[11] = biological target: T1, Androgen receptor; test: Antagonist activity at Androgen receptor (unknown origin) assessed as downregulation of AR
[12] = biological target: T1, Androgen receptor; test: Antagonist activity at Androgen receptor in human LNCaP cells assessed as inhibition of Binding Function 3 (BF3) of AR measured by luciferase assay; format: cell-based
[13] = In vivo agonist activity at Androgen receptor in castrated rat assessed as increase in levator ani muscle weight at 0.11 mg administered orally per day for 14 days; format: functional; conditions: route po, time 14 day
[14] = In vivo agonist activity at Androgen receptor in castrated male rat assessed as increase in prostate weight at 0.76 mg administered orally per day; format: functional; conditions: route po
[15] = Antitumor activity against bicalutamide-resistant human LNCaP-cxD2 cells xenografted in mouse at 50 mg/kg, po administered for 28 days; format: functional; conditions: time 28 day
[16] = biological target: T1, Androgen receptor; test: Binding affinity to wild-type Androgen receptor (unknown origin)
[17] = biological target: T1, Androgen receptor; test: Antagonist activity at wild-type Androgen receptor (unknown origin) expressed in African green monkey COS-7 cells measured as gene transcription level; format: cell-based
[18] = biological target: T3, Androgen receptor (Homo sapiens, UniProt P10275, T878A); test: Antagonist activity at Androgen receptor T877A mutant (unknown origin) expressed in African green monkey COS-7 cells measured as gene transcription level; format: cell-based
[19] = biological target: T3, Androgen receptor; test: Binding affinity to bicalutamide-resistant Androgen receptor T877A mutant (unknown origin)
[20] = Antitumor activity against bicalutamide-resistant human LNCaP-cxD2 cells xenografted in mouse at 25 mg/kg, po administered for 28 days; format: functional; conditions: time 28 day
[21] = In vivo agonist activity at Androgen receptor in male rat assessed as increase in prostate weight at 0.1 mg/kg, po administered for 14 days; format: functional; conditions: time 14 day
[22] = In vivo agonist activity at Androgen receptor in male rat assessed as increase in levator ani muscle weight at 0.1 mg/kg, po administered for 14 days; format: functional; conditions: time 14 day
[23] = biological target: T1, Androgen receptor
Description: Antagonist activity at Androgen receptor in human LNCaP cells assessed as inhibition of PSA expression

[24] = tested on: LNCaP; test: Antitumor activity against human LNCaP cells xenografted in mouse assessed as decrease in PSA level at 100 mg/kg, sc; format: functional; parameters: scale not given: the % may be the effect or the level left
[25] = tested on: LNCaP C4-2; test: Antiproliferative activity against AR-independent human LNCaP C4-2 cells after 5 days by MTS assay; format: functional, cell-based; conditions: LNCaP C4-2, 120 h
[26] = biological target: T2, Androgen receptor (Homo sapiens); test: Antagonist activity at Androgen receptor (unknown origin) at 10 uM relative to control; parameters: scale not given: the % may be the effect or the level left; conditions: filed as antagonist
[27] = Antitumor activity against human CWR22Rv cells xenografted in mouse at 10 mg/kg, ip administered for 21 days; format: functional; conditions: time 21 day
[28] = biological target: T2, Androgen receptor (Homo sapiens); test: Agonist activity at Androgen receptor (unknown origin) in presence of DHT
[29] = tested on: HEK-293T; test: Antiproliferative activity against NTD-over expressed human HEK293T cells after 5 days by MTS assay; format: functional, cell-based; conditions: 120 h
[30] = tested on: LNCaP; test: Antiproliferative activity against human LNCaP cells after 5 days by MTS assay; format: functional; conditions: time 5 day
[31] = Antiproliferative activity against AR-independent human CWR22Rv cells after 5 days by MTS assay; format: functional, cell-based; conditions: 120 h
[32] = Oral bioavailability in rat; format: ADME, organism-based; conditions: in vivo
[33] = tested on: Rattus norvegicus; test: Anti-androgenic activity in rat assessed as decrease in seminal vesicle weight at 2.58 microM/Kg, po administered twice daily for 7 days; format: functional; parameters: scale not given: the % may be the effect or the level left; conditions: time 7 day, at 2.58 µmol/kg
[34] = biological target: T1, Androgen receptor; test: Binding affinity to Androgen receptor (unknown origin); conditions: read-out: pIC50 (converted)
[35] = tested on: T47D; test: Antiproliferative activity against human T47D cells; format: functional, cell-based
[36] = Antiproliferative activity against androgen-sensitive mouse SEM-107 cells; format: functional, cell-based

T3 sequence (P10275 whole entry T878A): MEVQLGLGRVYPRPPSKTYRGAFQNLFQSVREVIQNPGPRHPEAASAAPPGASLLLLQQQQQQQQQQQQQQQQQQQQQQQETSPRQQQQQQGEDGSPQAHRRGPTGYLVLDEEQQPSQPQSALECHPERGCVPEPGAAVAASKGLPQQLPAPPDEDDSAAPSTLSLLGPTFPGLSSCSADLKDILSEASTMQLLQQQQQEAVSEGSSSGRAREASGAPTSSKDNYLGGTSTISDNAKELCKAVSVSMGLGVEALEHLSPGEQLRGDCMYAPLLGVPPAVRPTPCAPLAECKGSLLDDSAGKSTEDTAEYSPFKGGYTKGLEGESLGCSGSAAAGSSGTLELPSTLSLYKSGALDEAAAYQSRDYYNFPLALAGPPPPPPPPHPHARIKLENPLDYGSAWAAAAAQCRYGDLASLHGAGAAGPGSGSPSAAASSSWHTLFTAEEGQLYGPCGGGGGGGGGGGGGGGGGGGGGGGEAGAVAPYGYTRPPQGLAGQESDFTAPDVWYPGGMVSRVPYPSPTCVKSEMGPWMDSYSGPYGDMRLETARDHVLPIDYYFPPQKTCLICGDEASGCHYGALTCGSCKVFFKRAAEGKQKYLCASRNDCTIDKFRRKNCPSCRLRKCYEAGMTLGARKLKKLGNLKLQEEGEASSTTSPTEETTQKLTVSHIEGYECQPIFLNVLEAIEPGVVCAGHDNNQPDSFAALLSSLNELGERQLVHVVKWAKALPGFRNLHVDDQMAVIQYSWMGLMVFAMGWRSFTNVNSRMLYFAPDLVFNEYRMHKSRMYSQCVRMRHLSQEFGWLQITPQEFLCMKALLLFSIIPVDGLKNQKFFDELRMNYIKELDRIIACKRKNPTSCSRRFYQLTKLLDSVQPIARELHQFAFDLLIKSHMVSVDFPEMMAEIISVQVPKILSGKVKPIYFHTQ

## N#Cc1ccc(-c2ccc(O)cc2F)[nH]1
[1]
  EC50: 0.34 nM
[2]
  EC50: 1210 nM

## CCCN(CC(F)(F)F)c1cc(Br)c(C#N)s1
[3]
  IC50: 10 nM

## N#Cc1ccc(C2=NO[C@H]3CCCC[C@@H]23)cc1C(F)(F)F
[4]
  Activity: 99.2%
[5]
  IC50: 27.5 nM

## Cc1nc(O[C@H]2C(C)(C)[C@H](NC(=O)c3cnc4ncccn34)C2(C)C)ccc1C#N
[6]
  Activity: >90%

## N#Cc1ncc(N2C(=O)C3(CCC3)N(c3ccc(OC4CCNCC4)nc3)C2=S)cc1C(F)(F)F [TRC-253]
[7]
  inhibition in vivo at 30 mg/kg: 87%
[8]
  IC50: 290 nM
[9]
  bioavailability: 45%

## CC(=O)N1CCN(CCOc2ccc(C3CCN(C4=Nn5c(nnc5C(F)(F)F)CC4)CC3)cc2)CC1 [AZD3514]
[10]
  bioavailability: 75%
[11]
  IC50: > 1780 nM

## CCS(=O)(=O)Nc1cccc(-c2cc(=O)n(-c3ccc(Cl)c(Cl)c3)nc2C)c1
[12]
  IC50: 6260 nM

## C[C@@]1(C(=O)Nc2ccc(C#N)c(C(F)(F)F)c2)CC(C(F)(F)F)=NN1
[13]
  Activity: 90%
[14]
  Activity: 51%

## Cc1nn(-c2ccc(C#N)c(Cl)c2)c(C)c1Oc1ccc(C(=O)NC(C)(C)C)cn1
[15]
  T/C: 17%
[16]
  IC50: 430 nM
[17]
  IC50: 1000 nM

## Cc1c(C#N)c(-c2ccc(C#N)cc2)c(C)n1-c1cnc(Cl)c(CO)c1
[16]
  IC50: 37 nM
[18]
  IC50: 110 nM
[19]
  IC50: 100 nM
[17]
  IC50: 25 nM
[20]
  T/C: 15%

## Cc1c(/N=C2\O[C@@H](C(F)(F)F)[C@@H]3[C@@H](O)CCN23)ccc(C#N)c1Cl
[21]
  Activity: 100%
[22]
  Activity: 100%

## NS(=O)(=O)c1cccc2cc(SCCOc3ccccc3)[nH]c12
[23]
  IC50: 530 nM

## CC1(C)[C@H](NC(=O)c2cnn(CCO)c2)C(C)(C)[C@H]1Oc1ccc(C#N)c(Cl)c1
[24]
  Activity: >90%

## CCOc1ccc2c(c1OC(C)C)CCN(c1ccc(C(=O)Nc3cccc(C)n3)cn1)C2
[25]
  IC50: 1000 nM
[26]
  Activity: > 95%
[27]
  T/C: 65%
[28]
  Activity: < 5%
[29]
  IC50: 780 nM
[30]
  Activity: >90%
[31]
  IC50: 1000 nM

## N#Cc1ccc(CN2CCN(c3ccc4nnc(C(F)(F)F)n4n3)CC2)cc1
[32]
  bioavailability: 100%
[33]
  Activity: 80%
[34]
  IC50: > 79400 nM
[11]
  IC50: > 1580 nM

## CC(C)(O)C(=O)Nc1ccc([N+](=O)[O-])c(C(F)(F)F)c1 [HYDROXYFLUTAMIDE]
[35]
  IC50: 45 nM
[36]
  IC50: 84 nM

Reference: ChEMBL document CHEMBL5137058, “Therapeutic Strategies to Target the Androgen Receptor” (J Med Chem, 2022)
